# Tested on: IL-2 secretion by Jurkat T cells
# Experiment: Inhibition of IL-2 secretion
# Assay type: cell-based
# Settings: Homo sapiens; Jurkat T cells stimulated with PHA, 20 to 24 hours, IL-2 by ELISA
# Experimental: The CRAC channel modulatory activity of the compounds were thus evaluated by measuring the secretion of IL-2 by antigen stimulated T-cells in vitro. Alternatively, such activity can also be evaluated by assay methods known to one skilled in the art.
# Inhibition of IL-2 secretion: Jurkat T cells were seeded at a density of 0.5 to 1 million cells per well in RPMI medium. Test compounds from this invention were added to the cells at different concentrations. This was followed by the addition of PHA, a T cell mitogen after 10 minutes. The cells were then incubated for 20 to 24 hours in a CO2 incubator at 37° C. After incubation with the compounds, cells were centrifuged, the supernatant was collected and processed for ELISA to quantitate the amount of IL-2 secreted. A commercial ELISA kit (R&D Systems, Inc. Minneapolis, Minn., USA) was used to estimate the IL-2 concentrations. Amount of IL-2 secreted by cells stimulated with PHA was considered as a 100% maximal signal and the decrease in amount of IL-2 secreted by cells treated with the test compounds was expressed as percent inhibition of the maximal signal. The dose response data was analyzed using 4-parametric sigmoidal dose response (variable slope) curve—fit.
row,SMILES,IC50
1,"Cc1ncc(-c2nn(C)c(=O)o2)cc1-c1ccc(C(=O)Nc2c(F)cccc2F)n1C [Example 62, N-(2,6-Difluorophenyl)-1-methyl-5-(2-methyl-5-(4-methyl-5-oxo-4,5-dihydro-1,3,4-oxadiazol-2-yl)pyridin-3-yl)-1H-pyrrole-2-carboxamide]",0.1 to 1 µM
2,"CCc1ncc(-c2nn(C)c(=O)o2)cc1-c1ccc(C(=O)Nc2c(F)cccc2F)n1C [Example 63, N-(2,6-Difluorophenyl)-5-(2-ethyl-5-(4-methyl-5-oxo-4,5-dihydro-1,3,4-oxadiazol-2-yl)pyridin-3-yl)-1-methyl-1H-pyrrole-2-carboxamide]",> 1 µM
3,"CCc1cc(-c2ccc(NC(=O)c3c(F)cccc3F)cc2)nc(-c2nn(C)c(=O)o2)c1 [Example 64, N-(4-(4-Ethyl-6-(4-methyl-5-oxo-4,5-dihydro-1,3,4-oxadiazol-2-yl)pyridin-2-yl)phenyl)-2,6-difluorobenzamide]",> 1 µM
4,"CCc1cc(-c2nn(C)c(=O)o2)cnc1-c1ccc(NC(=O)c2c(F)cccc2F)cc1 [Example 65, N-(4-(3-Ethyl-5-(4-methyl-5-oxo-4,5-dihydro-1,3,4-oxadiazol-2-yl)pyridin-2-yl)phenyl)-2,6-difluorobenzamide]",> 1 µM
5,"Cn1nc(-c2cnc(-c3ccc(NC(=O)c4c(F)cccc4F)cc3)c(C3CC3)c2)oc1=O [Example 66, N-(4-(3-Cyclopropyl-5-(4-methyl-5-oxo-4,5-dihydro-1,3,4-oxadiazol-2-yl)pyridin-2-yl)phenyl)-2,6-difluorobenzamide]",0.1 to 1 µM
6,"Cn1nc(-c2cc(C3CC3)cnc2-c2ccc(NC(=O)c3c(F)cccc3F)cc2)oc1=O [Example 67, N-(4-(5-Cyclopropyl-3-(4-methyl-5-oxo-4,5-dihydro-1,3,4-oxadiazol-2-yl)pyridin-2-yl)phenyl)-2,6-difluorobenzamide]",> 1 µM
7,"CCc1ncc(-c2ccc(NC(=O)c3c(F)cccc3F)cc2)cc1-c1nn(C)c(=O)o1 [Example 68, N-(4-(6-Ethyl-5-(4-methyl-5-oxo-4,5-dihydro-1,3,4-oxadiazol-2-yl)pyridin-3-yl)phenyl)-2,6-difluorobenzamide]",> 1 µM

# — patent publication US9399638B2, “Substituted pyridine compounds as CRAC modulators” (LUPIN LIMITED, priority 2012, dated 2016)
